In US7425557B2, “Inhibitors of glycogen synthase kinase 3” (Novartis Vaccines and Diagnostics, Inc., priority 1998, dated 2008):
pIC50: −log10 of the molar value.

These compounds were tested against human GSK3β (Homo sapiens, UniProt P49841) (assay: Screening for GSK3 inhibitory activity using a cell-free assay). Conditions: read-out: IC50 with respect to GSK3.
Format: biochemical
Experimental: This amount represents the amount of radiolabeled phosphate incorporated into the peptide substrate.
The captured radiolabeled peptide substrate can be quantitated in a scintillation counter using known methods. […] If an inhibitor is present during the reaction, GSK3 activity will be reduced, and a smaller quantity of radiolabeled phosphate will thus be incorporated into the peptide substrate.
Pyrimidine and pyridine compounds of the present invention were dissolved in DMSO, then tested for inhibition of human GSK3β (the nucleotide sequence for human GSK3β appears in GenBank under Accession No. L33801).
While the reaction was proceeding, streptavidin-coated Labsystems “Combiplate 8” capture plates (Labsystems, Helsinki, Finland) were blocked by incubating them with 300 μl/well of PBS containing 1% bovine serum albumin for at least one hour at room temperature. The blocking solution was then removed by aspiration, and the capture plates were filled with 100 ul/well of stopping reagent (50 μM ATP/20 mM EDTA).
When the three hour enzyme reaction was finished, triplicate 100 μl aliquots of each reaction mix were transferred to three wells containing stopping solution, one well on each of the three capture plates, and the well contents were mixed well. […] Finally, 200 μl of Microscint-20 scintillation fluid was added to each well of the plate. The plates were coated with plate sealers, then left on a shaker for 30 minutes. Each capture plate was counted in a Packard TopCount scintillation counter (Meridian, Conn.) and the results were plotted as a function of compound concentration.

Sequence of human GSK3β (P49841 whole entry): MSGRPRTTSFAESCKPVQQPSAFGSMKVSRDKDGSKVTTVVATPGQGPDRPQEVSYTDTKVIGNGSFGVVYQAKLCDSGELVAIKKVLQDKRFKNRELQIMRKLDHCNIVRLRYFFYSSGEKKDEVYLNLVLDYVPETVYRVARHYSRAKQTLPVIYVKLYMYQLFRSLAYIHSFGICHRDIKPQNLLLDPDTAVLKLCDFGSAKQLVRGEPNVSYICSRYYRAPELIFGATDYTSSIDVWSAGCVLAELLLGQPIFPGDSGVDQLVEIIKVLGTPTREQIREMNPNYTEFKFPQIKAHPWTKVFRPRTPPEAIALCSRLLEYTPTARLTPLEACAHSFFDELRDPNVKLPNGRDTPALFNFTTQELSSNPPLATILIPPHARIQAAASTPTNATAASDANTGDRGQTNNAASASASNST

pIC50 | Compound
≥ 6.00 | N#Cc1ccc(-c2nc(NCCNc3ccc([N+](=O)[O-])cn3)ncc2C(=O)OCc2ccccc2)cc1 [phenylmethyl 4-(4-cyanophenyl)-2-({2-[(5-nitro(2-pyridyl))amino]ethyl}amino)pyrimidine-5-carboxylate]
≥ 6.00 | O=[N+]([O-])c1ccc(NCCNc2ncc(CN3CCOCC3)c(-c3ccc(Cl)cc3Cl)n2)nc1 [[4-(2,4-dichlorophenyl)-5-(morpholin-4-ylmethyl)pyrimidin-2-yl]{2-[(5-nitro(2-pyridyl))amino]ethyl}amine]
≥ 6.00 | Cn1ccnc1-c1cnc(NCCNc2ccc([N+](=O)[O-])c(N)n2)nc1-c1ccc(Cl)cc1Cl [{2-[(6-amino-5-nitro(2-pyridyl))amino]ethyl}[4-(2,4-dichlorophenyl)-5-(1-methylimidazol-2-yl)pyrimidin-2-yl]amine]
≥ 6.00 | CCCCOC(=O)c1cnc(NCCNc2ccc([N+](=O)[O-])cn2)nc1-c1ccc(C#N)cc1 [butyl 4-(4-cyanophenyl)-2-({2-[(5-nitro(2-pyridyl))amino]ethyl}amino)pyrimidine-5-carboxylate]
≥ 5.00 | O=[N+]([O-])c1ccc(NCCNc2nccc(-c3cnccn3)n2)nc1 [{2-[(5-nitro(2-pyridyl))amino]ethyl}(4-pyrazin-2-ylpyrimidin-2-yl)amine]
≥ 5.00 | CCOC(=O)c1cnc(NCCNc2ccc(C(=O)OC)cn2)nc1-c1ccc(C#N)cc1 [methyl 6-[(2-{[4-(4-cyanophenyl)-5-(ethoxycarbonyl)pyrimidin-2-yl]amino}ethyl)amino]pyridine-3-carboxylate]
≥ 6.00 | CCc1ccc(-c2nc(NCCNc3ccc([N+](=O)[O-])c(N)n3)ncc2-n2ccnc2)cc1 [{2-[(6-amino-5-nitro(2-pyridyl))amino]ethyl}[4-(4-ethylphenyl)-5-imidazolylpyrimidin-2-yl]amine]
≥ 6.00 | CC(=O)Nc1cnc(NCCNc2ccc([N+](=O)[O-])cn2)nc1-c1ccc(Cl)cc1Cl [N-[4-(2,4-dichlorophenyl)-2-({2-[(5-nitro(2-pyridyl))amino]ethyl}amino)pyrimidin-5-yl]-acetamide]
≥ 6.00 | CCOC(=O)c1cnc(NCCNc2ccc([N+](=O)[O-])cn2)nc1-c1ccc(Cl)cc1 [ethyl 4-(4-chlorophenyl)-2-({2-[(5-nitro(2-pyridyl))amino]ethyl}amino)pyrimidine-5-carboxylate]
≥ 5.00 | COCCNC(=O)c1ccc(-c2ccnc(NCCNc3ccc([N+](=O)[O-])cn3)n2)cc1 [N-(2-methoxyethyl){4-[2-({2-[(5-nitro(2-pyridyl))amino]ethyl}amino)pyrimidin-4-yl]phenyl}carboxamide]
≥ 5.00 | CCOC(=O)c1cnc(NCCNc2ccc([N+](=O)[O-])cn2)nc1-c1ccc(-c2ccccc2)cc1 [ethyl 2-({2-[(5-nitro(2-pyridyl))amino]ethyl}amino)-4-(4-phenylphenyl)pyrimidine-5-carboxylate]
≥ 5.00 | CCOC(=O)c1cnc(NCCc2ccccn2)nc1-c1ccc(F)cc1 [ethyl 4-(4-fluorophenyl)-2-[(2-(2-pyridyl)ethyl)amino]pyrimidine-5-carboxylate]
≥ 6.00 | FC(F)(F)c1ccc(NCCNc2ncc(-c3ncc[nH]3)c(-c3ccc(Cl)cc3Cl)n2)nc1 [[4-(2,4-dichlorophenyl)-5-imidazol-2-ylpyrimidin-2-yl](2-{[5-(trifluoromethyl)(2-pyridyl)]amino}ethyl) amine]
≥ 5.00 | O=C(NCc1cccc(Br)c1)c1ccc(-c2ccnc(NCCCNc3ccc([N+](=O)[O-])cn3)n2)cc1 [N-[(3-bromophenyl)methyl]{4-[2-({3-[(5-nitro(2-pyridyl))-amino]propyl}amino)pyrimidin-4-yl]phenyl}carboxamide]
≥ 6.00 | Cc1c[nH]c(-c2cnc(NCCNc3ccc([N+](=O)[O-])c(N)n3)nc2-c2ccc(Br)cc2Cl)n1 [{2-[(6-amino-5-nitro(2-pyridyl))amino]ethyl}[4-(4-bromo-2-chlorophenyl)-5-(4-methylimidazol-2-yl)pyrimidin-2-yl]amine]
≥ 5.00 | CCNC(=O)c1ccc(NCCNc2ncc(C(=O)OCC)c(-c3ccc(C#N)cc3)n2)nc1 [ethyl 4-(4-cyanophenyl)-2-[(2-{[5-(N-ethylcarbamoyl)(2-pyridyl)]amino}-ethyl)amino]pyrimidine-5-carboxylate]
≥ 6.00 | N#Cc1ccc(-c2nc(NCCNc3ccc([N+](=O)[O-])cn3)ncc2C(=O)NCc2ccncc2)cc1 [[4-(4-cyanophenyl)-2-({2-[(5-nitro(2-pyridyl))-amino]ethyl}amino)pyrimidin-5-yl]-N-(4-pyridylmethyl)carboxamide]
≥ 6.00 | O=[N+]([O-])c1ccc(NCCNc2ncc(-c3ncc[nH]3)c(-c3ccc(Cl)cc3Cl)n2)nc1 [[4-(2,4-dichlorophenyl)-5-imidazol-2-ylpyrimidin-2-yl]{2-[(5-nitro(2-pyridyl))amino]ethyl}amine]
≥ 5.00 | O=C(NCc1cccc(Br)c1)c1ccc(-c2ccnc(NCCNc3ccc4ccccc4n3)n2)cc1 [N-[(3-bromophenyl)methyl][4-(2-{[2-(2-quinolylamino)ethyl]amino}pyrimidin-4-yl)phenyl]carboxamide]
≥ 5.00 | COc1ccc(OC)c(CCNc2nccc(-c3ccc(C(=O)NCc4cccc(Br)c4)cc3)n2)c1 [[4-(2-{[2-(2,5-dimethoxyphenyl)ethyl]amino}pyrimidin-4-yl)phenyl]-N-[(3-bromophenyl)methyl]carboxamide]
≥ 5.00 | O=C(NCc1cccc(Br)c1)c1ccc(-c2ccnc(NCCNc3ccc([N+](=O)[O-])cn3)n2)cc1 [N-[(3-bromophenyl)methyl]{4-[2-({2-[(5-nitro(2-pyridyl))amino]ethyl}amino)pyrimidin-4-yl]phenyl}carboxamide]

The remaining lines, values behind:

Compound | pIC50
CCOC(=O)c1cnc(NCCNc2ccc(C(=O)O)cn2)nc1-c1ccc(C#N)cc1 [6-[(2-{[4-(4-cyanophenyl)-5-(ethoxycarbonyl)pyrimidin-2-yl]amino}ethyl)amino]pyridine-3-carboxylic acid] | ≥ 5.00
CN1CC(=O)N(c2cnc(NCCNc3ccc([N+](=O)[O-])c(N)n3)nc2-c2ccc(Cl)cc2Cl)C(=O)C1 [1-[2-({2-[(6-amino-5-nitro(2-pyridyl))amino]ethyl}-amino)-4-(2,4-dichlorophenyl)pyrimidin-5-yl]-4-methylpiperazine-2,6-dione] | ≥ 6.00
N#Cc1ccc(NCCNc2nccc(-c3ccc(C(N)=O)cc3)n2)nc1 [4-[2-({2-[(5-cyano-2-pyridyl)amino]-ethyl}amino)pyrimidin-4-yl]benzamide] | ≥ 6.00
Cc1nc(NCCNc2ccc([N+](=O)[O-])cn2)nc(-c2ccccc2)c1C(=O)O [6-methyl-2-({2-[(5-nitro(2-pyridyl))amino]ethyl}amino)-4-phenylpyrimidine-5-carboxylic acid] | ≥ 5.00
NC(=O)c1ccc(-c2ccnc(NCc3cc(C(F)(F)F)cc(C(F)(F)F)c3)n2)cc1 [4-[2-({[3,5-bis(trifluoromethyl)phenyl]methyl}amino)pyrimidin-4-yl]benzamide] | ≥ 5.00
N#Cc1cnc(NCCNc2ccc([N+](=O)[O-])cn2)nc1-c1ccccc1 [2-({2-[(5-nitro(2-pyridyl))amino]ethyl}amino)-4-phenylpyrimidine-5-carbonitrile] | ≥ 6.00
N#Cc1ccc(NCCNc2ncc(-c3ncc[nH]3)c(-c3ccc(F)cc3Cl)n2)nc1 [6-[(2-{[4-(2-chloro-4-fluorophenyl)-5-imidazol-2-ylpyrimidin-2-yl]amino}ethyl)amino]pyridine-3-carbonitrile] | ≥ 6.00
NC(=O)c1ccc(-c2ccnc(NCCNc3ccc(C(F)(F)F)cn3)n2)cc1 [4-{2-[(2-{[5-(trifluoromethyl)-2-pyridyl]amino}-ethyl)amino]pyrimidin-4-yl}benzamide] | ≥ 6.00
N#Cc1ccc(-c2nc(NCCNc3ccc([N+](=O)[O-])cn3)ncc2C(N)=O)cc1 [4-(4-cyanophenyl)-2-({2-[(5-nitro(2-pyridyl))-amino]ethyl}amino)pyrimidine-5-carboxamide] | ≥ 6.00
NC(=O)C(Cc1ccccc1)NC(=O)c1ccc(-c2ccnc(NCCc3ccccn3)n2)cc1 (stereo not shown) [N-(1-carbamoyl-2-phenyl-ethyl)(4-{2-[(2-(2-pyridyl)ethyl)amino]pyrimidin-4-yl}phenyl)carboxamide] | ≥ 5.00
CN(C)CCCOC(=O)c1cnc(NCCNc2ccc([N+](=O)[O-])cn2)nc1-c1ccc(C#N)cc1 [3-(dimethylamino)propyl 4-(4-cyanophenyl)-2-({2-[(5-nitro(2-pyridyl))amino]ethyl}amino)pyrimidine-5-carboxylate] | ≥ 6.00
Cc1cn(-c2cnc(NCCNc3ccc([N+](=O)[O-])c(N)n3)nc2-c2ccc(Cl)cc2Cl)c(C)n1 | ≥ 6.00
NC(=O)c1ccc(-c2ccnc(NCCc3cccc(Cl)c3)n2)cc1 | ≥ 5.00
COc1ccc(OCCCNc2nccc(-c3ccc(C(N)=O)cc3)n2)cc1 [4-(2-{[3-(4-methoxyphenoxy)propyl]-amino}pyrimidin-4-yl)benzamide] | ≥ 6.00
COc1cccc(OC)c1CNc1nccc(-c2ccc(C(N)=O)cc2)n1 [4-(2-{[(2,6-dimethoxyphenyl)-methyl]amino}pyrimidin-4-yl)benzamide] | ≥ 5.00
COc1ccccc1CCNc1nccc(-c2ccc(C(N)=O)cc2)n1 [4-(2-{[2-(2-methoxyphenyl)-ethyl]amino}pyrimidin-4-yl)benzamide] | ≥ 6.00
